Measured values from PMC10620772, “Design, synthesis, and biological evaluation of new pyrimidine-5-carbonitrile derivatives as novel anti-cancer, dual EGFR^WT/COX-2 inhibitors with docking studies” (RSC Advances, 2023).

How the values were obtained:
Assay in all cases: NCI60 antitumor screening
Type in all cases: cell-based, human
HS 578T = conditions: Homo sapiens; 10 μM single dose; HS 578T (breast cancer); read-out: growth inhibition percent (GI%)
CAKI-1 = conditions: Homo sapiens; 10 μM single dose; CAKI-1 (renal cancer); read-out: growth inhibition percent (GI%)
HT29 = conditions: Homo sapiens, HT-29; 10 μM single dose; HT29 (colon cancer); read-out: growth inhibition percent (GI%)
SK-MEL-5 = conditions: Homo sapiens; 10 μM single dose; SK-MEL-5 (melanoma); read-out: growth inhibition percent (GI%)
M14 = conditions: Homo sapiens; 10 μM single dose; M14 (melanoma); read-out: growth inhibition percent (GI%)
HOP-62 = conditions: Homo sapiens; 10 μM single dose; HOP-62 (non-small cell lung cancer); read-out: growth inhibition percent (GI%)
TK-10 = conditions: Homo sapiens; 10 μM single dose; TK-10 (renal cancer); read-out: growth inhibition percent (GI%)
OVCAR-3 = conditions: Homo sapiens; 10 μM single dose; OVCAR-3 (ovarian cancer); read-out: growth inhibition percent (GI%)
A498 = conditions: Homo sapiens; 10 μM single dose; A498 (renal cancer); read-out: growth inhibition percent (GI%)
U251 = conditions: Homo sapiens, U-251; 10 μM single dose; U251 (CNS cancer); read-out: growth inhibition percent (GI%)
NCI-H322M = conditions: Homo sapiens; 10 μM single dose; NCI-H322M (non-small cell lung cancer); read-out: growth inhibition percent (GI%)
MCF7 = conditions: Homo sapiens; 10 μM single dose; MCF7 (breast cancer); read-out: growth inhibition percent (GI%)
A549/ATCC = conditions: Homo sapiens; 10 μM single dose; A549/ATCC (non-small cell lung cancer); read-out: growth inhibition percent (GI%)
NCI-H460 = conditions: Homo sapiens; 10 μM single dose; NCI-H460 (non-small cell lung cancer); read-out: growth inhibition percent (GI%)
HL-60(TB) = conditions: Homo sapiens; 10 μM single dose; HL-60(TB) (leukaemia); read-out: growth inhibition percent (GI%)
IGROV1 = conditions: Homo sapiens, IGROV-1; 10 μM single dose; IGROV1 (ovarian cancer); read-out: growth inhibition percent (GI%)
SNB-75 = conditions: Homo sapiens; 10 μM single dose; SNB-75 (CNS cancer); read-out: growth inhibition percent (GI%)
OVCAR-5 = conditions: Homo sapiens; 10 μM single dose; OVCAR-5 (ovarian cancer); read-out: growth inhibition percent (GI%)
MDA-MB-435 = conditions: Homo sapiens; 10 μM single dose; MDA-MB-435 (melanoma); read-out: growth inhibition percent (GI%)
MDA-MB-468 = conditions: Homo sapiens; 10 μM single dose; MDA-MB-468 (breast cancer); read-out: growth inhibition percent (GI%)
SF-539 = conditions: Homo sapiens; 10 μM single dose; SF-539 (CNS cancer); read-out: growth inhibition percent (GI%)
PC-3 = conditions: Homo sapiens; 10 μM single dose; PC-3 (prostate cancer); read-out: growth inhibition percent (GI%)
MOLT-4 = conditions: Homo sapiens; 10 μM single dose; MOLT-4 (leukaemia); read-out: growth inhibition percent (GI%)
HCT-15 = conditions: Homo sapiens; 10 μM single dose; HCT-15 (colon cancer); read-out: growth inhibition percent (GI%)
786–0 = conditions: Homo sapiens; 10 μM single dose; 786–0 (renal cancer); read-out: growth inhibition percent (GI%)
NCI-H522 = conditions: Homo sapiens; 10 μM single dose; NCI-H522 (non-small cell lung cancer); read-out: growth inhibition percent (GI%)
SF-268 = conditions: Homo sapiens; 10 μM single dose; SF-268 (CNS cancer); read-out: growth inhibition percent (GI%)
UACC-257 = conditions: Homo sapiens; 10 μM single dose; UACC-257 (melanoma); read-out: growth inhibition percent (GI%)
MALME-3M = conditions: Homo sapiens; 10 μM single dose; MALME-3M (melanoma); read-out: growth inhibition percent (GI%)
KM12 = conditions: Homo sapiens; 10 μM single dose; KM12 (colon cancer); read-out: growth inhibition percent (GI%)
SF-295 = conditions: Homo sapiens; 10 μM single dose; SF-295 (CNS cancer); read-out: growth inhibition percent (GI%)
T-47D = conditions: Homo sapiens, T47D; 10 μM single dose; T-47D (breast cancer); read-out: growth inhibition percent (GI%)
SN12C = conditions: Homo sapiens; 10 μM single dose; SN12C (renal cancer); read-out: growth inhibition percent (GI%)
ACHN = conditions: Homo sapiens; 10 μM single dose; ACHN (renal cancer); read-out: growth inhibition percent (GI%)
K-562 = conditions: Homo sapiens; 10 μM single dose; (leukaemia); read-out: growth inhibition percent (GI%)
CCRF-CEM = conditions: Homo sapiens; 10 μM single dose; CCRF-CEM (leukaemia); read-out: growth inhibition percent (GI%)
SNB-19 = conditions: Homo sapiens; 10 μM single dose; SNB-19 (CNS cancer); read-out: growth inhibition percent (GI%)

Cc1ccc(CSc2nc(-c3ccc(F)cc3)c(C#N)c(N3CCN(C)CC3)n2)cc1 [4l, 4-(4-Fluorophenyl)-2-((4-methylbenzyl)thio)-6-(4-methylpiperazin-1-yl) pyrimidine-5-carbonitrile]
inhibition at 10 µM (HS 578T): 31.1% | inhibition at 10 µM (CAKI-1): 36.9% | inhibition at 10 µM (HT29): 10.6% | inhibition at 10 µM (SK-MEL-5): < 10% | inhibition at 10 µM (M14): < 10% | inhibition at 10 µM (HOP-62): 12.8% | inhibition at 10 µM (TK-10): < 10% | inhibition at 10 µM (OVCAR-3): < 10% | inhibition at 10 µM (A498): < 10% | inhibition at 10 µM (U251): < 10% | inhibition at 10 µM (NCI-H322M): 18% | inhibition at 10 µM (MCF7): 12.8% | inhibition at 10 µM (A549/ATCC): 13.1% | inhibition at 10 µM (NCI-H460): < 10% | inhibition at 10 µM (HL-60(TB)): 12.2% | inhibition at 10 µM (IGROV1): < 10% | inhibition at 10 µM (SNB-75): 35.6% | inhibition at 10 µM (OVCAR-5): < 10% | inhibition at 10 µM (MDA-MB-435): < 10% | inhibition at 10 µM (MDA-MB-468): < 10% | inhibition at 10 µM (SF-539): 31.8% | inhibition at 10 µM (PC-3): 24.2% | inhibition at 10 µM (MOLT-4): 10.5% | inhibition at 10 µM (HCT-15): 10.3% | inhibition at 10 µM (786–0): 44.2% | inhibition at 10 µM (NCI-H522): 33.4% | inhibition at 10 µM (SF-268): < 10% | inhibition at 10 µM (UACC-257): < 10% | inhibition at 10 µM (MALME-3M): 11.7% | inhibition at 10 µM (KM12): < 10% | inhibition at 10 µM (SF-295): 17.6% | inhibition at 10 µM (T-47D): 18.1% | inhibition at 10 µM (SN12C): 11.9% | inhibition at 10 µM (ACHN): 29.9% | inhibition at 10 µM (K-562): 28.6% | inhibition at 10 µM (CCRF-CEM): 15.2% | inhibition at 10 µM (SNB-19): 14.3%
